Here are results for twelve molecules from patent publication US5635514A, “Heteroaralkyl and heteroarylthioalkyl thiophenolic compounds as 5-lipoxgenase inhibitors” (G. D. Searle & Company, priority 1994, dated 1997).

Assay [1] concerns the target T1, Human recombinant 5-lipoxygenase (Homo sapiens, UniProt P09917).
T1 construct: made in house; host or cells: E. coli
T1 sequence (P09917 1-674): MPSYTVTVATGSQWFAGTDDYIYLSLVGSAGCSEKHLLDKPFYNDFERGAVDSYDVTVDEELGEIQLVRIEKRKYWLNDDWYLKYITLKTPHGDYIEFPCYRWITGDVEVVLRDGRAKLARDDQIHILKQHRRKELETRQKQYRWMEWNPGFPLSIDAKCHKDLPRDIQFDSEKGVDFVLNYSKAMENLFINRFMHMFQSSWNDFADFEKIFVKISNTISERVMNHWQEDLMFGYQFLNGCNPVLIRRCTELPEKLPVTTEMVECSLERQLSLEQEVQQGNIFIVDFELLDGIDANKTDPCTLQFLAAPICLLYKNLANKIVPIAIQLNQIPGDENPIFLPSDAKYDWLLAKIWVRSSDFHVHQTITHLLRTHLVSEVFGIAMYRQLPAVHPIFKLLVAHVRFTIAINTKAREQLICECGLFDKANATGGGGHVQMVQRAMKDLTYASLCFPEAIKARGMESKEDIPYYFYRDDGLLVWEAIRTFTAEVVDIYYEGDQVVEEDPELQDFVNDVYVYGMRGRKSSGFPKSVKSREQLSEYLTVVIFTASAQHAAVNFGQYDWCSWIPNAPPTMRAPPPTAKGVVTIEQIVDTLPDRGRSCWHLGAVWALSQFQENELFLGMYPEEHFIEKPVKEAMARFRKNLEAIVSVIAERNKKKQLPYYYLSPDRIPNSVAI
The assay is described as follows: Recombinant 5-Lipoxygenase Inhibition Assay. Format: biochemical. The note with it: 25° C., 8 minutes, absorbance at 240 nm. The protocol:
The compounds of the present invention were evaluated with respect to 5-lipoxygenase inhibition according to the Recombinant 5-Lipoxygenase Inhibition Assay described below.
Human 5-lipoxygenase expressed in E. coli as a soluble protein was prepared in the manner described by M. Noguchi et al., "Expression of Human 5-Lipoxygenase cDNA in E. coli," FEBS Letters, Vol. 249, No. 2, 267-270 (1989), which is incorporated herein by reference. The human 5-lipoxygenase was partially purified by ion exchange chromatography and stored in 50 mM Tris-HCl buffer (pH 8.1) containing 150 mM NaCl, 2 mM EDTA, 2 mM DTT, and 50% glycerol at -70° C. before use.
The following solutions were prepared as indicated: CaCl2 /ATP, 12.5 mM CaCl2 and 5 mM ATP in H2 O; arachidonic acid, 4 mM in ethanol; potassium phosphate buffer, 50 mM potassium phosphate and 0.1 mM EDTA, pH 7.2. Test compounds were first prepared at 10 mM in DMSO and further diluted to desirable concentrations with DMSO.
The assay was carried out in a quartz cuvette to which 15 μl CaCl2 /ATP, 7.5 μl arachidonic acid, 7.5 μl ethanol or test compound, and 710 μl potassium phosphate buffer, in that order, were added and mixed. The mixture was prewarmed to 25° C. The enzymatic reaction was started by adding 10 μl of 5-lipoxygenase enzyme (~0.2 mg protein), and the formation of the reaction product 5-HPETE/5-HETE at 25° C. for 8 minutes was determined by measuring the increase in the absorbance at 240 nm using a Beckman DU-7 spectrophotometer.
The results for this assay are expressed in terms of activity with respect to 5-lipoxygenase inhibition as an IC50 value (50% inhibitory concentration).

Assay [2] deals with Thromboxane production by calcium ionophore stimulated human blood. The assay is described as follows: Human Whole Blood Assay, thromboxane production (calcium ionophore stimulated). The class given is cell-based. The note with it: calcium ionophore A23187, thromboxane. The protocol: (§1) (c) LTB4 and Thromboxane Production by Calcium Ionophore Stimulated Human Blood--Human Whole Blood LTB4 Assay
(§2) The compounds of the present invention were evaluated with respect to 5-lipoxygenase inhibition according to the Human Whole Blood LTB4 Assay described below.
(§3) Human whole blood was collected in heparin containing Vacutainer brand tubes. The blood was diluted with RPMI-1640 cell culture media [1:4] (Gibco, Grand Island, N.Y.) and 200 microliters were added per well in 96 well microtiter plates. Compounds of the present invention diluted in dimethylsulfoxide were added to the blood and allowed to incubate for 15 minutes at 37° C. in a humidified incubator. Calcium ionophore A23187 [20 mcg/ml final concentration, Sigma Chemical Co., St. Louis, Mo.] was added, and the incubation was continued for 10 minutes. The incubation was terminated by centrifugation [833 g, 10 minutes at 4° C.]. Supernatants were analyzed for LTB4 and thromboxane by commercially available enzyme-linked immunoassays [Caymen Chemical Co., Ann Arbor, Mich.]. Test compounds which inhibit 5-lipoxygenase in this assay inhibit the formation of LTB4 and cause reduced levels of this agent in the supernatant.
(§4) The results of this assay are expressed in terms of activity with respect to 5-lipoxygenase inhibition as an IC50 value (50% inhibitory concentration).

Assay [3] deals with LTB4 production by calcium ionophore stimulated human blood. Put plainly: Human Whole Blood LTB4 Assay (calcium ionophore stimulated LTB4 production). Format: cell-based. The note with it: calcium ionophore A23187, LTB4. The method, then: as §1, §2, §3, §4
For assay [4], the system named is TPA-induced ear inflammation (Mouse, Ear). The assay is described as follows: Tetradecanoylphorbol Acetate (TPA) Assay (TPA-induced mouse ear inflammation). The note with it: 50 mpk, ip + 120 minute; for TPA Edema (% Inhibition): ear thickness. The class given is in vivo. The protocol:
The compounds of the present invention were evaluated with respect to 5-lipoxygenase inhibition according to the Tetradecanoylphorbol Acetate (TPA) Assay which is described in Rao et al., "Comparative Evaluation of Arachidonic Acid (AA)--And Tetradecanoylphorbol Acetate (TPA)-Induced Dermal Inflammation." Inflammation, Vol. 17, No. 6, 723-741 (1993), which is incorporated herein by reference.
In this study, selective 5-lipoxygenase inhibitors, such as zileuton, MK-886, LTB4 and LTD4 receptor […] were evaluated in acute inflammatory responses elicited by the topical application of TPA to the ears of mice. The increases in edema and myeloperoxidase (MPO) were used as readouts of inflammatory responses.
Animals. Female BALB/c mice (17-25 g; Jackson Labs, Bar Barbor, Me.) or male Swiss Webster mice (Charles River, Portage, Mich.) were used in the studies. The animals were housed in a vivarium with a 12-hour lighting schedule (0600-1800 hours on) with free access to food and water. Housing and experimental procedures were conducted according to institutionally approved (Monsanto, St. Louis, Mo. and National Institute of Health) guidelines.
Drugs and Reagents. Hexadecyltrimethylammonium bromide (HTAB), and TPA were purchased from Sigma Chemical Co. (St. Louis, Mo.). Human polymorphonuclear leukocyte myeloperoxidase (20 units/mg protein) was obtained from Calbiochem (San Diego, Calif.). One unit of MPO was defined as the activity of the enzyme that oxidizes 1 μmol of hydrogen peroxide per minute at 25° C.
TPA Inflammation Model. […] Four hours following the application of TPA, increases in ear thickness were measured and ears were excised for MPO measurements.
Measurement of MPO. […] The rate of change of absorbance was monitored in kinetic mode by a plate reader (Molecular Devices, Menlo Park, Calif.). Levels of MPO in lavage samples were determined from the calibration curves using human neutrophil MPO as the reference standard. The levels of MPO were expressed as milliunits per ear. […]

A value given as a limit tells only on which side of the number the result lay.

With `CC(C)(C)c1cc(SCCCn2cnc3ccccc32)cc(C(C)(C)C)c1O` [Compound 21, 2,6-bis(1,1-dimethylethyl)-4-[[3-(1H-benzimidazol-1-yl)propyl]thio]phenol], the IC50 (in general, the concentration at which inhibition is half-maximal) in assay [1] was 0.14 ± 0.02 µM; in assay [2] it was 18.6 µM; in assay [3] it was 2.26 µM.

In the case of `CC(C)(C)c1cc(SCCCn2cnc3ncccc32)cc(C(C)(C)C)c1O` [Compound 19, 2,6-bis(1,1-dimethylethyl)-4-[[3-1H-imidazo[4,5-b]pyridin-1-yl)propyl]thio]-phenol Hydrate], the values for the IC50 in assay [1], in assay [2] and in assay [3] were 0.36 ± 0.07 µM, over 39 µM and 6.62 µM, respectively.

On to `CC(C)(C)c1cc(SCCCn2cnc3cccnc32)cc(C(C)(C)C)c1O` [Compound 18, (2,6-bis(1,1-dimethylethyl)-4-[[3-(1H-imidazo[5,4-b]pyridin-1-yl)propyl]thio]phenol Hydrate], for which the IC50 in assay [1] was 0.32 ± 0.02 µM.

With `CC(C)(C)c1cc(SCCn2ccc3ncnc-3c2)cc(C(C)(C)C)c1O` [Compound 8, 2,6-bis(1,1-dimethylethyl)-4-[[2-(5H-imidazo-[4,5-c]pyridin-5-yl)ethyl]thio]phenol Hydrate], the IC50 in assay [1] is 4.48 ± 0.36 µM.

`CC(C)(C)c1cc(SCCCn2ccc3ccccc32)cc(C(C)(C)C)c1O` [Compound 24, 2,6-bis(1,1-dimethylethyl)-4-[[3-(1H-indol-1-yl)propyl]thio]phenol Hydrate]: the IC50 in assay [1] was 0.48 ± 0.09 µM.

On to `CC(C)(C)c1cc(SCCCn2cnc3cnccc32)cc(C(C)(C)C)c1O` [Compound 16, 2,6-bis(1,1-dimethylethyl)-4-[[3-(1H-imidazo[4,5-c]pyridin-1-yl)propyl]thio]phenol], for which the IC50 in assay [1] was 0.34 ± 0.1 µM.

For `CC(C)(C)c1cc(SCCSc2nc3ccccc3o2)cc(C(C)(C)C)c1O` [Compound 26, 2,6-bis(1,1-dimethylethyl)-4-[[2-[(1,3-benzoxazol-2-yl)thio]ethyl]thio]phenol Hydrate], the results for the IC50 in assay [1], in assay [2] and in assay [3] were 0.93 ± 0.16 µM, 9.1 µM and 11.1 µM, respectively.

`CC(C)(C)c1cc(SCCCCn2ccc3ncnc-3c2)cc(C(C)(C)C)c1O` [Compound 14, 2,6-bis(1,1-dimethylethyl)-4-[[4-(5H-imidazo-[4,5-c]pyridin-5-yl)butyl]thiophenol Hydrate]: the IC50 in assay [1] is 0.41 ± 0.02 µM.

Turning to `CC(C)(C)c1cc(SCC(O)Cn2ccc3ncnc-3c2)cc(C(C)(C)C)c1O` (racemic) [Compound 27, (±) 2,6-bis(1,1-dimethylethyl)-4-[[2-hydroxy-3-(5H-imidazo[4,5-c]pyridin-5-yl]propylthio]phenol Hydrate], the results for the 50% inhibitory concentration (IC50) in assay [1], in assay [2] and in assay [3] were 1.1 ± 0.23 µM, 37.3 µM and 7.42 µM, respectively. Further, the “TPA Edema (% Inhibition)” value in assay [4] was found to be 46%.

In the case of `CC(C)(C)c1cc(SCCCn2cnc3ccncc32)cc(C(C)(C)C)c1O` [Compound 15, 2,6-bis(1,1-dimethylethyl)-4-[[3-(1H-imidazo[5,4-c]pyridin-1-yl]propyl]thio]phenol], the values for the IC50 in assay [1], in assay [2] and in assay [3] were 0.49 ± 0.04 µM, 14.4 µM and 6.27 µM, respectively.

In the case of `CC(C)(C)c1cc(SCCCn2ccc3ncnc-3c2)cc(C(C)(C)C)c1O` [Compound 5, 2,6-bis(1,1-dimethylethyl)-4-[[3-(5H-imidazo-[4,5-c]pyridin-5-yl)propyl]thio]phenol], the IC50 in assay [1] was 0.57 ± 0.07 µM; in assay [2] it was 50 µM; in assay [3], 13.3 µM. The “TPA Edema (% Inhibition)” value in assay [4] worked out at 42%. Besides, the “TPA MPO (% Inhibition)” value in assay [4] (myeloperoxidase) amounted to 24%.

Turning to `CC(C)(C)c1cc(SCc2nc3cccnc3[nH]2)cc(C(C)(C)C)c1O` [Compound 29, 2,6-bis(1,1-dimethylethyl)-4-[[(3H-imidazo-[4,5-b]pyridin-2-yl)methyl]thio]phenol], the IC50 in assay [1] was 1.8 ± 0.3 µM; in assay [2], 50 µM; in assay [3], 20.1 µM.
